{"source": "PubChem BioAssay AID652280", "about": "(Broad Institute, 2013)", "note": "Records with an inconclusive call do not appear. Active and inactive are the calls of the source. No rule for the calls is given here."}
{"assay": "NIH/3T3 fibroblast cytotoxicity, dose response, cytotoxicity control, cell-based, plate reader, dry powder, set 2 (AID 652280)", "conditions": "NIH/3T3 mouse fibroblast toxicity, plate reader; at 16 µM (top of the series)"}
{"compound": "CC(C)N1C[C@@H](C)[C@H](CN(C)Cc2ccc(Oc3ccccc3)cc2)Oc2c(cccc2N(C)C(=O)c2ccncc2)C1=O", "activity change, negative = toxicity": "-4.89% (inactive)"}
{"compound": "C[C@@H]1CN([C@@H](C)CO)C(=O)c2cccc(NC(=O)c3ccncc3)c2O[C@H]1CN(C)C", "activity change, negative = toxicity": "-10.2% (inactive)"}
{"compound": "CC(C)N1C[C@@H](C)[C@H](CN(C)C(=O)OC(C)(C)C)Oc2c(C(N)=O)cccc2C1=O", "activity change, negative = toxicity": "12.8% (inactive)"}
{"compound": "CC(C)N1C[C@H](CN2Cc3ccccc3C2)Oc2c(NC(=O)c3ccncc3)cccc2C1=O", "activity change, negative = toxicity": "1.03% (inactive)"}
{"compound": "CC(C)N1C[C@@H](C)[C@H](CN(C)C(=O)OC(C)(C)C)Oc2c(C(=O)O)cccc2C1=O", "activity change, negative = toxicity": "14.1% (inactive)"}
{"compound": "C[C@@H]1CCCCO[C@H](CN(C)Cc2ccc(Cl)c(Cl)c2)[C@@H](C)CN([C@H](C)CO)C(=O)c2cc(N(C)C)ccc2O1", "activity change, negative = toxicity": "82.1% (inactive)"}
{"compound": "CCOC(=O)c1cc2c(c(-c3cccc(C#CCN(C)C)c3)n1)[C@H](CCO)N(S(=O)C(C)(C)C)C2", "note": "(stereo not given in full)", "activity change, negative = toxicity": "-9.39% (inactive)"}
{"compound": "CC(C)N1CC2(CN(Cc3ccccc3Cl)C2)Oc2c(NC(=O)c3ccncc3)cccc2C1=O", "activity change, negative = toxicity": "-16.5% (inactive)"}
{"compound": "O=C(Cc1ccccn1)N1CCCCN2[C@@H](CO)[C@H](c3ccc(Br)cc3)[C@@H]2C1", "activity change, negative = toxicity": "9.05% (inactive)"}
{"compound": "CN(C)CC#Cc1cccc(-c2nc(C(=O)O)cc3c2[C@H](CCO)N(S(=O)C(C)(C)C)C3)c1", "note": "(stereo not given in full)", "activity change, negative = toxicity": "-1.94% (inactive)"}
{"compound": "C[C@@H](CO)N1CC[C@H](CNC(=O)OC(C)(C)C)Oc2c(NC(=O)c3ccncc3)cccc2C1=O", "activity change, negative = toxicity": "2.74% (inactive)"}
{"compound": "CC(C)N1C[C@@H](C)[C@H](CN(C)C(=O)OC(C)(C)C)Oc2c(C(=O)Nc3ccncc3)cccc2C1=O", "activity change, negative = toxicity": "-10.9% (inactive)"}
{"compound": "C[C@@H]1CN([C@@H](C)CO)C(=O)c2cccc(NC(=O)c3ccncc3)c2O[C@@H]1CN(C)Cc1ccc(Oc2ccccc2)cc1", "activity change, negative = toxicity": "15.4% (inactive)"}
{"compound": "CN(C)C(=O)c1cccc(-c2ccc([C@H]3[C@H](CO)N4CCCCN(Cc5cccnc5)C[C@@H]34)cc2)c1", "activity change, negative = toxicity": "-3% (inactive)"}
{"compound": "CC(C)(C)S(=O)N1Cc2cc(C(=O)NCc3ccc4c(c3)OCO4)nc(-c3cccc(-c4cccc(F)c4)c3)c2[C@H]1CCO", "note": "(stereo not given in full)", "activity change, negative = toxicity": "12.7% (inactive)"}
{"compound": "CC(C)N1C[C@@H](C)[C@H](CN(C)Cc2ccc(Oc3ccccc3)cc2)Oc2c(C(=O)O)cccc2C1=O", "activity change, negative = toxicity": "9.6% (inactive)"}
{"compound": "CC(C)N1C[C@H](C)[C@@H](CN(C)Cc2ccc(Cl)c(Cl)c2)Oc2c(cccc2-c2nn[nH]n2)C1=O", "activity change, negative = toxicity": "-0.771% (inactive)"}
{"compound": "CC(C)N1C[C@H](C)[C@@H](CN(C)Cc2ccc(Cl)cc2)Oc2c(C(=O)Nc3ccncc3)cccc2C1=O", "activity change, negative = toxicity": "-7.6% (inactive)"}
{"compound": "C[C@H]1CN([C@@H](C)CO)C(=O)c2cccc(NC(=O)c3ccncc3)c2O[C@@H]1CN(C)Cc1cccc(Cl)c1", "activity change, negative = toxicity": "-20.7% (inactive)"}
{"compound": "C[C@@H](CO)N1CC[C@H](CNC(=O)OC(C)(C)C)Oc2c(cccc2[N+](=O)[O-])C1=O", "activity change, negative = toxicity": "16.7% (inactive)"}
{"compound": "Cc1ccccc1CN(C)C[C@H]1Oc2c(NC(=O)c3ccncc3)cccc2C(=O)N([C@@H](C)CO)C[C@@H]1C", "activity change, negative = toxicity": "-4.8% (inactive)"}
{"compound": "CC(C)N1C[C@@H](CN(C)Cc2ccc(Cl)cc2)Oc2c(NC(=O)c3ccncc3)cccc2C1=O", "activity change, negative = toxicity": "-18% (inactive)"}
{"compound": "CC(C)N1CC2(CN(Cc3ccccn3)C2)Oc2c(NC(=O)c3ccncc3)cccc2C1=O", "activity change, negative = toxicity": "-3.3% (inactive)"}
{"compound": "CC(C)N1CC2(CN(CC3CCCCC3)C2)Oc2c(NC(=O)c3ccncc3)cccc2C1=O", "activity change, negative = toxicity": "9.84% (inactive)"}
{"compound": "C[C@@H]1CN([C@H](C)CO)C(=O)c2cccc(NC(=O)c3ccncc3)c2O[C@H]1CN(C)Cc1ccc2c(c1)OCO2", "activity change, negative = toxicity": "-14.9% (inactive)"}
{"compound": "CC(C)N1C[C@H](CN(C)Cc2ccc(Cl)cc2)Oc2c(NC(=O)c3ccncc3)cccc2C1=O", "activity change, negative = toxicity": "-35.4% (inactive)"}
{"compound": "COc1ccccc1CN(C)C[C@H]1Oc2c(NC(=O)c3ccncc3)cccc2C(=O)N([C@@H](C)CO)C[C@@H]1C", "activity change, negative = toxicity": "-28.8% (inactive)"}
{"compound": "CN(C)C(=O)c1ccc(-c2ccc([C@H]3[C@H](CO)N4CCCCN(CC5CC5)C[C@@H]34)cc2)cc1", "activity change, negative = toxicity": "24.4% (inactive)"}
{"compound": "CN(C)C(=O)c1cccc(-c2ccc([C@H]3[C@H]4CN(C(=O)C5CCC5)CCCCN4[C@H]3CO)cc2)c1", "activity change, negative = toxicity": "24.3% (inactive)"}
{"compound": "CN(C)C(=O)c1cccc(-c2ccc([C@@H]3[C@@H](CO)N4CCCCN(C(=O)C5CCC5)C[C@@H]34)cc2)c1", "activity change, negative = toxicity": "0.445% (inactive)"}
{"compound": "COC[C@H](C)N1C[C@H](C)[C@@H](CN(C)Cc2ccc(Oc3ccccc3)cc2)Oc2c(NC(=O)c3ccncc3)cccc2C1=O", "activity change, negative = toxicity": "128% (inactive)"}
{"compound": "C[C@H]1CN([C@@H](C)CO)C(=O)c2cccc(NC(=O)c3ccncc3)c2O[C@@H]1CN(C)Cc1c(Cl)cccc1Cl", "activity change, negative = toxicity": "16% (inactive)"}
{"compound": "COCCNC(=O)c1cc2c(c(-c3cccc(C#CCN(C)C)c3)n1)[C@H](CCO)N(S(=O)C(C)(C)C)C2", "note": "(stereo not given in full)", "activity change, negative = toxicity": "20.8% (inactive)"}
{"compound": "CN(C)CC(=O)N1CCCCN2[C@@H](CO)[C@H](c3ccc(-c4cccnc4)cc3)[C@@H]2C1", "activity change, negative = toxicity": "0.846% (inactive)"}
{"compound": "CC(C)N1CC2(CN(Cc3ccc(-c4cccnc4)cc3)C2)Oc2c(NC(=O)c3ccncc3)cccc2C1=O", "activity change, negative = toxicity": "-22.8% (inactive)"}
{"compound": "CC(C)N1CC[C@H](CN(C)Cc2ccc(Oc3ccccc3)cc2)Oc2c(NC(=O)c3ccncc3)cccc2C1=O", "activity change, negative = toxicity": "-22.1% (inactive)"}
{"compound": "Cc1cccc(-c2ccc([C@H]3[C@H](CO)N4CCCCN(C(=O)c5ccncc5)C[C@@H]34)cc2)c1", "activity change, negative = toxicity": "-19.7% (inactive)"}
{"compound": "CN(C)C(=O)c1cccc(-c2ccc([C@H]3[C@H](CO)N4CCCCN(C(=O)C5CCCC5)C[C@@H]34)cc2)c1", "activity change, negative = toxicity": "32.1% (inactive)"}
{"compound": "CN(C)CC#Cc1cccc(-c2nc(C(=O)N3CCN(Cc4ccccc4)CC3)cc3c2[C@H](CCO)N(S(=O)C(C)(C)C)C3)c1", "note": "(stereo not given in full)", "activity change, negative = toxicity": "-3.09% (inactive)"}
{"compound": "CC(C)N1CC2(CN(Cc3ccc(F)c(F)c3)C2)Oc2c(NC(=O)c3ccncc3)cccc2C1=O", "activity change, negative = toxicity": "-3.93% (inactive)"}
{"compound": "CC(C)N1C[C@@H](CN(C)Cc2ccc(Cl)cc2)Oc2c(NC(=O)c3ncn[nH]3)cccc2C1=O", "activity change, negative = toxicity": "0.096% (inactive)"}
{"compound": "CN1CCCCN2[C@@H](CO)[C@H](c3ccc(Br)cc3)[C@@H]2C1", "activity change, negative = toxicity": "-2.42% (inactive)"}
{"compound": "CC(C)(C)[S@@](=O)N1Cc2cc(C(=O)NCc3ccc4c(c3)OCO4)nc(-c3cccc(-c4ccccc4)c3)c2[C@H]1CCO", "activity change, negative = toxicity": "14.4% (inactive)"}
{"compound": "CC(C)N1CC2(CN(Cc3ccc(F)cc3)C2)Oc2c(NC(=O)c3ccncc3)cccc2C1=O", "activity change, negative = toxicity": "-0.418% (inactive)"}
{"compound": "OC[C@H]1[C@H](c2ccc(Br)cc2)[C@@H]2CN(Cc3ccccn3)CCCCN12", "activity change, negative = toxicity": "5.37% (inactive)"}
{"compound": "CN(C)C(=O)c1ccc(-c2ccc([C@H]3[C@H](CO)N4CCCCN(Cc5cncnc5)C[C@@H]34)cc2)cc1", "activity change, negative = toxicity": "10.1% (inactive)"}
{"compound": "COc1ccc(CCN(C)C(=O)C2CCCN(Cc3ccc(OC)c(OC)c3)C2)cc1OC", "note": "(stereo not given)", "activity change, negative = toxicity": "6.14% (inactive)"}
{"compound": "COc1ccc(S(=O)(=O)N(C)C[C@H]2OCCCC[C@H](C)Oc3ccc(N(C)C)cc3C(=O)N([C@H](C)CO)C[C@@H]2C)cc1", "activity change, negative = toxicity": "10% (inactive)"}
{"compound": "CC(C)N1C[C@H](C)[C@@H](CN(C)Cc2ccc(Cl)cc2)Oc2c(NC(=O)c3ccncc3)cccc2C1=O", "activity change, negative = toxicity": "-13.4% (inactive)"}
{"compound": "C[C@H]1CN([C@@H](C)CO)C(=O)c2cccc(NC(=O)c3ccncc3)c2O[C@@H]1CN(C)Cc1ccc(Cl)cc1Cl", "activity change, negative = toxicity": "-13.3% (inactive)"}
{"compound": "CN(C)C(=O)c1cccc(-c2ccc([C@H]3[C@@H](CO)N4CCCCN(C(=O)C5CCCC5)C[C@@H]34)cc2)c1", "activity change, negative = toxicity": "28.8% (inactive)"}
{"compound": "C[C@@H]1CCCCO[C@H](CN(C)C(=O)Nc2cccc3ccccc23)[C@@H](C)CN([C@H](C)CO)C(=O)c2cc(N(C)C)ccc2O1", "activity change, negative = toxicity": "-0.649% (inactive)"}
{"compound": "C[C@H]1CN([C@@H](C)CO)C(=O)c2cccc(NC(=O)c3ccncc3)c2O[C@@H]1CN(C)Cc1ccc(F)cc1Cl", "activity change, negative = toxicity": "-10.1% (inactive)"}
{"compound": "C[C@H]1CN([C@@H](C)CO)C(=O)c2cccc(NC(=O)c3ccncc3)c2O[C@@H]1CN(C)Cc1ccc(Cl)c(F)c1", "activity change, negative = toxicity": "-25.3% (inactive)"}
{"compound": "Cc1ccc(CN(C)C[C@H]2Oc3c(NC(=O)c4ccncc4)cccc3C(=O)N([C@@H](C)CO)C[C@@H]2C)cc1", "activity change, negative = toxicity": "-16.5% (inactive)"}
{"compound": "CC(C)N1CC2(CN(Cc3ccccc3F)C2)Oc2c(NC(=O)c3ccncc3)cccc2C1=O", "activity change, negative = toxicity": "6.11% (inactive)"}
{"compound": "CNC[C@@H]1Oc2c(NC(=O)c3ccncc3)cccc2C(=O)N(C(C)C)C[C@H]1C", "activity change, negative = toxicity": "1.96% (inactive)"}
{"compound": "CC(C)N1CC2(CN(C(=O)c3ccc(Cl)cc3)C2)Oc2c(NC(=O)c3ccncc3)cccc2C1=O", "activity change, negative = toxicity": "10.5% (inactive)"}
{"compound": "CN(C)CC#Cc1cccc(-c2nc(C(=O)N3CCN(C)CC3)cc3c2[C@H](CCO)N(S(=O)C(C)(C)C)C3)c1", "note": "(stereo not given in full)", "activity change, negative = toxicity": "16.4% (inactive)"}
{"compound": "CN(C)CC#Cc1cccc(-c2nc(C(=O)NCc3ccc4c(c3)OCO4)cc3c2[C@H](CCO)N(S(=O)C(C)(C)C)C3)c1", "note": "(stereo not given in full)", "activity change, negative = toxicity": "6.62% (inactive)"}
{"compound": "CN(C)C(=O)c1cccc(-c2ccc([C@H]3[C@@H](CO)N4CCCCN(C(=O)C5CCC5)C[C@@H]34)cc2)c1", "activity change, negative = toxicity": "1.53% (inactive)"}
{"compound": "CC(c1ccc(Cl)cc1)N1CC2(C1)CN(C(C)C)C(=O)c1cccc(NC(=O)c3ccncc3)c1O2", "note": "(stereo not given)", "activity change, negative = toxicity": "6.05% (inactive)"}
{"compound": "CC(C)N1C[C@@H](CN(C)Cc2ccc(Cl)cc2)Oc2c(NC(=O)c3ccncn3)cccc2C1=O", "activity change, negative = toxicity": "-18.8% (inactive)"}
{"compound": "COc1ccc(CN(C)C[C@@H]2Oc3c(NC(=O)c4ccncc4)cccc3C(=O)N([C@@H](C)CO)C[C@H]2C)cc1", "activity change, negative = toxicity": "-22.2% (inactive)"}
{"assay": "NIH/3T3 fibroblast cytotoxicity, dose response, cytotoxicity control, cell-based, plate reader, dry powder, set 2 (AID 652280)", "conditions": "NIH/3T3 mouse fibroblast toxicity, plate reader; at 18 µM (top of the series)"}
{"compound": "Cc1ccc(S(=O)(=O)N(C)C[C@H]2OCCCC[C@@H](C)Oc3ccc(N(C)C)cc3C(=O)N([C@H](C)CO)C[C@@H]2C)cc1", "activity change, negative = toxicity": "25.8% (inactive)"}
